Experiment [1] concerns the target T1, BTK (Homo sapiens, UniProt Q06187).
T1 construct: purchased Signalchem B10-10H
The experiment can be described thus: Inhibitory activity against BTK, ADP-Glo Kinase system (Promega). In kind it is biochemical. The method, boiled down:
(§1)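 IC50 values were fitted from kinase reactions run for 1 h at 30°C with either 1 mM ATP or ATP at Km (10 µM for BTK, 25 µM for ITK). Reactions used 0.2 µg/µl poly(Glu4,Tyr1), recombinant human enzyme (BTK 10 ng, ITK 4 ng per reaction) in Tris pH 7.5 Mn/Mg buffer with 1% DMSO. ADP formed was read by ADP-Glo luminescence.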

For experiment [2], the target named is T2, ITK (Homo sapiens, UniProt Q08881).
T2 construct: purchased Signalchem I13-11G-10
T2 sequence (Q08881 1-620): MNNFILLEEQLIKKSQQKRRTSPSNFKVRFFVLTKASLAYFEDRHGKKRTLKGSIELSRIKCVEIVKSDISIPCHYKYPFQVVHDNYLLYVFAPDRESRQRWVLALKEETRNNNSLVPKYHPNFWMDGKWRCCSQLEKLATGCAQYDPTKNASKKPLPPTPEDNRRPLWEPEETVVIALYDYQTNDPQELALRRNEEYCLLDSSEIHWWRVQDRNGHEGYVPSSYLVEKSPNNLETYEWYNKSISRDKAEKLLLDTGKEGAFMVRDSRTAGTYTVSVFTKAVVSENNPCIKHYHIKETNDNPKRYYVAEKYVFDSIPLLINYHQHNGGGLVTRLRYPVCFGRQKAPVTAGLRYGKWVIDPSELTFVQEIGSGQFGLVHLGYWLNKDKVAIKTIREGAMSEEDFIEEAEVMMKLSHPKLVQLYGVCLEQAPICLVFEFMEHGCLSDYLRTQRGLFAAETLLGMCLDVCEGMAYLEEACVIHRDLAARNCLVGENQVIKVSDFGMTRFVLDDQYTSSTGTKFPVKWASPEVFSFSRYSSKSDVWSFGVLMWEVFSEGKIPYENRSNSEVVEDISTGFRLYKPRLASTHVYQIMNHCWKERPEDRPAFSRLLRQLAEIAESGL
Put plainly: Inhibitory activity against ITK, ADP-Glo Kinase system (Promega). In kind it is biochemical. The procedure, abridged:
as §1
A general note: ADP-Glo first removes unused ATP, then detects ADP through luciferase.

[3] abbreviates: 1mM ATP, read-out: BTK IC50(nM) 1mM ATP.
Setting [4] is: 1mM ATP, read-out: ITK IC50(nM) 1mM ATP.
The mark [5] stands for this setting: Km ATP (BTK: 10 uM), read-out: BTK IC50(nM) Km ATP.
The mark [6] stands for this setting: Km ATP (ITK: 25uM), read-out: ITK IC50(nM) Km ATP.

Read-outs that look alike come from different tables or passages of the source. Where only a bound is given, the exact number is not on record here.

Among the data in patent EP4707277A1, “NOVEL HETEROCYCLIC AMINE DERIVATIVES AND PHARMACEUTICAL COMPOSITION COMPRISING SAME” (Daewoong Pharmaceutical Co., Ltd., priority 2023, dated 2024) are IC50 values, retold here.

T1 sequence (Q06187 whole entry): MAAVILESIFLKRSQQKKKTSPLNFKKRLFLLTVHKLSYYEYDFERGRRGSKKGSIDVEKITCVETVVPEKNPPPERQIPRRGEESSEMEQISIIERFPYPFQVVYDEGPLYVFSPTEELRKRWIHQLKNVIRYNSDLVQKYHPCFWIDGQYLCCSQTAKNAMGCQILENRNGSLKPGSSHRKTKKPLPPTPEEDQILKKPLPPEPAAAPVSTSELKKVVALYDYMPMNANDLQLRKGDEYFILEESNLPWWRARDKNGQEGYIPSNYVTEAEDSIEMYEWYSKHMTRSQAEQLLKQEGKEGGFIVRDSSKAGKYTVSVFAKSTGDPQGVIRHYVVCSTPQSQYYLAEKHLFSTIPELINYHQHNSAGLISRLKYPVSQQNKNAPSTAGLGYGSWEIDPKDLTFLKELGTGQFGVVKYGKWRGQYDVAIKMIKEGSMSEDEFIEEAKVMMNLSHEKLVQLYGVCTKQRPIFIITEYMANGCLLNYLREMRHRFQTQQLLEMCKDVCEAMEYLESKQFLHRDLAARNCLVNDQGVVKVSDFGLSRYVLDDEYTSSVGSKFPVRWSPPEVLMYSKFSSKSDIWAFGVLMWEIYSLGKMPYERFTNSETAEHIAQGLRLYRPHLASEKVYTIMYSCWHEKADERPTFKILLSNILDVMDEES

Usually IC50 stands for the concentration that gives 50% inhibition. `C=CC(=O)N1C[C@@H](F)[C@H](Oc2nc(Nc3ncc(C)s3)cc3c2ccn3C[C@@H](C)CC)C1` [Example 175, 1-((3R,4R)-3-fluoro-4-((1-((S)-2-methylbutyl)-6-((5-methylthiazol-2-yl)amino)-1H-pyrrolo[3,2-c]pyridin-4-yl)oxy)pyrrolidin-1-yl)prop-2-en-1-one]: the IC50 in experiment [1] (setting [3]) and in experiment [2] (setting [4]) was at most 20 nM throughout.
For the molecule `C=CC(=O)N1CCC[C@H](Oc2nc(Nc3ncc(C)s3)cc3c2ccn3C)C1` [Example 158, (S)-1-(3-((1-methyl-6-((5-methylthiazol-2-yl)amino)-1H-pyrrolo[3,2-c]pyridin-4-yl)oxy)piperidin-1-yl)prop-2-en-1-one], the IC50 in experiment [1] (setting [3]) is at most 20 nM; in experiment [2] (setting [4]) it was 20 to 100 nM.
The corresponding values for `C=CC(=O)N1C[C@@H](F)[C@H](Oc2nc(Nc3ncc(C)s3)cc3c2ccn3C[C@H](C)CC)C1` [Example 174, 1-((3R,4R)-3-fluoro-4-((1-((R)-2-methylbutyl)-6-((5-methylthiazol-2-yl)amino)-1H-pyrrolo[3,2-c]pyridin-4-yl)oxy)pyrrolidin-1-yl)prop-2-en-1-one] are at most 20 nM and at most 20 nM.
The corresponding values for `C=CC(=O)N1C[C@H](F)[C@H](Oc2nc(Nc3cc(C)[nH]n3)cc3c2ccn3CC(C)C)C1` [Example 196, 1-((3S,4R)-3-fluoro-4-((1-isobutyl-6-((5-methyl-1H-pyrazol-3-yl)amino)-1H-pyrrolo[3,2-c]pyridin-4-yl)oxy)pyrrolidin-1-yl)prop-2-en-1-one] are 20 to 100 nM and 20 to 100 nM.
For `C=CC(=O)N1CCC[C@H](Oc2nc(Nc3ncc(C)s3)cc3c2ccn3C2CCCC2)C1` [Example 151, (S)-1-(3-((1-cyclopentyl-6-((5-methylthiazol-2-yl)amino)-1H-pyrrolo[3,2-c]pyridin-4-yl)oxy)piperidin-1-yl)prop-2-en-1-one] the same measures were at most 20 nM and 20 to 100 nM.
Take `C=CC(=O)N1CC[C@H](Oc2nc(Nc3ncc(C)s3)cc3c2ccn3CC2CC2)C1` [Example 97, (S)-1-(3-((1-(cyclopropylmethyl)-6-((5-methylthiazol-2-yl)amino)-1H-pyrrolo[3,2-c]pyridin-4-yl)oxy)pyrrolidin-1-yl)prop-2-en-1-one]: the 50% inhibitory concentration (IC50) in experiment [1] (setting [3]) and in experiment [2] (setting [4]) was at most 20 nM throughout.
Turning to `C=CC(=O)N1CC[C@H]1COc1nc(Nc2ncc(C)s2)cc2c1ccn2C(C)C` [Example 86, (S)-1-(2-(((1-isopropyl-6-((5-methylthiazol-2-yl)amino)-1H-pyrrolo[3,2-c]pyridin-4-yl)oxy)methyl)azetidin-1-yl)prop-2-en-1-one], the IC50 was at most 20 nM in experiment [1] (setting [3]) and 20 to 100 nM in experiment [2] (setting [4]).
For the molecule `C=CC(=O)N1C[C@H](F)[C@H](Oc2nc(Nc3ncc(C)s3)cc3c2ccn3CC2CCCC2)C1` [Example 132, 1-((3R,4S)-3-((1-(cyclopentylmethyl)-6-((5-methylthiazol-2-yl)amino)-1H-pyrrolo[3,2-c]pyridin-4-yl)oxy)-4-fluoropyrrolidin-1-yl)prop-2-en-1-one], the IC50 in experiment [1] (setting [3]) and in experiment [2] (setting [4]) was at most 20 nM each time.
Take `C=CC(=O)N1CCC[C@H]1COc1nc(Nc2ncc(C)s2)cc2c1ccn2CC(C)C` [Example 85, (S)-1-(2-(((1-isobutyl-6-((5-methylthiazol-2-yl)amino)-1H-pyrrolo[3,2-c]pyridin-4-yl)oxy)methyl)pyrrolidin-1-yl)prop-2-en-1-one]: the IC50 was 20 to 100 nM in experiment [1] (setting [3]) and over 500 nM in experiment [2] (setting [4]).
The corresponding values for `C=CC(=O)N1CC[C@H](COc2nc(Nc3ncc(C)s3)cc3c2ccn3CC(C)C)C1` [Example 216, (S)-1-(3-(((1-isobutyl-6-((5-methylthiazol-2-yl)amino)-1H-pyrrolo[3,2-c]pyridin-4-yl)oxy)methyl)pyrrolidin-1-yl)prop-2-en-1-one] are 20 to 100 nM and 100 to 500 nM.
Take `C=CC(=O)N1C[C@H](F)[C@H](Oc2nc(Nc3ncc(C)s3)cc3c2ccn3CCOC)C1` [Example 147, 1-((3S,4R)-3-fluoro-4-((1-(2-methoxyethyl)-6-((5-methylthiazol-2-yl)amino)-1H-pyrrolo[3,2-c]pyridin-4-yl)oxy)pyrrolidin-1-yl)prop-2-en-1-one]: the IC50 in experiment [1] (setting [3]) and in experiment [2] (setting [4]) was at most 20 nM in each case.
On to `C=CC(=O)N1C[C@@H](Oc2nc(Nc3ncc(C)s3)cc3c2ccn3CC2CC2)C[C@@H]1C` [Example 180, 1-((2S,4S)-4-((1-(cyclopropylmethyl)-6-((5-methylthiazol-2-yl)amino)-1H-pyrrolo[3,2-c]pyridin-4-yl)oxy)-2-methylpyrrolidin-1-yl)prop-2-en-1-one], for which the IC50 in experiment [1] (setting [3]) and in experiment [2] (setting [4]) was at most 20 nM throughout.
For `C=CC(=O)Nc1cc(-c2nc(Nc3ncc(C)s3)cc3c2ccn3CC(F)F)ccc1F` [Example 76, N-(5-(1-(2,2-difluoroethyl)-6-((5-methylthiazol-2-yl)amino)-1H-pyrrolo[3,2-c]pyridin-4-yl)-2-fluorophenyl)acrylamide], the IC50 in experiment [1] (setting [5]) is at most 20 nM; in experiment [2] (setting [6]) it was 20 to 100 nM.
On to `C=CC(=O)N1CC[C@H](Oc2nc(Nc3ncc(C)s3)cc3c2ccn3[C@@H](C)CC)C1` [Example 111, 1-((S)-3-((1-((S)-sec-butyl)-6-((5-methylthiazol-2-yl)amino)-1H-pyrrolo[3,2-c]pyridin-4-yl)oxy)pyrrolidin-1-yl)prop-2-en-1-one], for which the IC50 in experiment [1] (setting [3]) and in experiment [2] (setting [4]) was at most 20 nM each time.
Turning to `C=CC(=O)N1C[C@@H](Oc2nc(Nc3ncc(C)s3)cc3c2ccn3CC2CC2)C[C@H]1C` [Example 98, 1-((2R,4S)-4-((1-(cyclopropylmethyl)-6-((5-methylthiazol-2-yl)amino)-1H-pyrrolo[3,2-c]pyridin-4-yl)oxy)-2-methylpyrrolidin-1-yl)prop-2-en-1-one], the half-inhibitory concentration (IC50) in experiment [1] (setting [3]) and in experiment [2] (setting [4]) was at most 20 nM throughout.
Regarding `C=CC(=O)N1C2C=C(c3nc(Nc4ncc(C)s4)cc4c3ccn4C(C)C)CC1CC2` (centres unmarked) [Example 29, 1-(3-(1-isopropyl-6-((5-methylthiazol-2-yl)amino)-1H-pyrrolo[3,2-c]pyridin-4-yl)-8-azabicyclo[3.2.1]oct-2-en-8-yl)prop-2-en-1-one], the IC50 in experiment [1] (setting [5]) and in experiment [2] (setting [6]) was at most 20 nM throughout.
As to `C=CC(=O)N1C[C@H](F)[C@H](Oc2nc(Nc3ccn(C)n3)cc3c2ccn3CC(C)C)C1` [Example 197, 1-((3S,4R)-3-fluoro-4-((1-isobutyl-6-((1-methyl-1H-pyrazol-3-yl)amino)-1H-pyrrolo[3,2-c]pyridin-4-yl)oxy)pyrrolidin-1-yl)prop-2-en-1-one], the half-maximal inhibitory concentration (IC50) in experiment [1] (setting [3]) and in experiment [2] (setting [4]) was over 500 nM each time.
For `C=CC(=O)N1CC[C@H](Oc2nc(Nc3ncc(C)s3)cc3c2ccn3C)C1` [Example 130, (S)-1-(3-((1-methyl-6-((5-methylthiazol-2-yl)amino)-1H-pyrrolo[3,2-c]pyridin-4-yl)oxy)pyrrolidin-1-yl)prop-2-en-1-one], the 50% inhibitory concentration (IC50) in experiment [1] (setting [3]) and in experiment [2] (setting [4]) was at most 20 nM in each case.
On to `C=CC(=O)N1CC(Oc2nc(Nc3ncc(C)s3)cc3c2ccn3CCOC)C1` [Example 146, 1-(3-((1-(2-methoxyethyl)-6-((5-methylthiazol-2-yl)amino)-1H-pyrrolo[3,2-c]pyridin-4-yl)oxy)azetidin-1-yl)prop-2-en-1-one], for which the half-maximal inhibitory concentration (IC50) in experiment [1] (setting [3]) and in experiment [2] (setting [4]) was at most 20 nM throughout.
